assay: Solubility of the dyes in organic solvent, determined after one week of the solution in contact with the solid dye with occasional shaking; format: physicochemical; conditions: CHCl₃, 20 °C; 10080 min
From the text: Die Perylenfarbstoffe werden aus technischen Perylen-3,4:9,10-tetracarbonsäurebisanhydrid (2,55 mmol), dem entsprechenden primären Amin oder dem Aminhydrochlorid (6 mmol) und Imidazol (5 g) dargestellt und werden entsprechend der Literatur gereinigt (siehe z.B. Chem. Ber. 118 4641 (1985) und Chem. Ber. 121 225 (1988)). Die Angaben beziehen sich auf die Darstellung von hochreine Farbstoffen. Die Perylenfarbstoffe der allgemeinen Formel I mit R¹ = R² = Hexyl, Dodecyl, Octadecyl, Cycloalkyl bis zu Cyclopentadecyl und sec-Alkyl bis 1-Hexylheptyl sind in Chem. Ber. 121 225 (1988) beschriebn. Die Löslichkeiten der Farbstoffe sind nach einer Woche der Lösung mit dem festen Farbstoff bei gelegentlichem Umschütteln bestimmt worden.

In the case of CCCCN1C(=O)c2ccc3c4ccc5c6c(ccc(c7ccc(c2c37)C1=O)c64)C(=O)N(CCCC)C5=O [N,N'-Di(1-butyl)perylen-3,4:9,10-bis(dicarboximid)], the “Löslichkeit (CHCl₃/20^oC)” value is reported as 8,9 mg/100 ml.
With CCCN1C(=O)c2ccc3c4ccc5c6c(ccc(c7ccc(c2c37)C1=O)c64)C(=O)N(CCC)C5=O [N,N'-Di(1-Propyl)perylen-3,4:9,10-bis(dicarboximid)] the “Löslichkeit (CHCl₃/20^oC)” value was 5,3 mg/100 ml.

In order of rising “Löslichkeit (CHCl₃/20^oC)” value:
1. CCCCCCCCCN1C(=O)c2ccc3c4ccc5c6c(ccc(c7ccc(c2c37)C1=O)c64)C(=O)N(CCCCCCCCC)C5=O [N,N'-Di(n-nonyl)perylen-3,4:9,10-bis(dicarboximid)]  11 mg/100 ml
2. CCCCCN1C(=O)c2ccc3c4ccc5c6c(ccc(c7ccc(c2c37)C1=O)c64)C(=O)N(CCCCC)C5=O [N,N'-Di(1-pentyl)perylen-3,4:9,10-bis(dicarboximid)]  47 mg/100 ml

same assay, conditions: CHCl₃, temperature not given; 10080 min

In order of rising “Löslichkeit (CHCl₃)” value:
1. CCCCCCCCCCCCCCN1C(=O)c2ccc3c4ccc5c6c(ccc(c7ccc(c2c37)C1=O)c64)C(=O)N(CCCCCCCCCCCCCC)C5=O [N,N'-Di(n-tetradecyl)perylen-3,4:9,10-bis(dicarboximid)]  5.4 mg/100 ml
2. CCCCCCCCCCCCCCCCN1C(=O)c2ccc3c4ccc5c6c(ccc(c7ccc(c2c37)C1=O)c64)C(=O)N(CCCCCCCCCCCCCCCC)C5=O [N,N'-Di(n-hexadecyl)perylen-3,4:9,10-bis(dicarboximid)]  6.0 mg/100 ml

For CCCCCCCCCCCCCCCCCCN1C(=O)c2ccc3c4ccc5c6c(ccc(c7ccc(c2c37)C1=O)c64)C(=O)N(CCCCCCCCCCCCCCCCCC)C5=O [N,N'-Di(n-octadecyl)perylen-3,4:9,10-bis(dicarboximid)], the “Löslichkeit (CHCl₃)” value was 1,8 mg/100 ml.

With O=C1c2ccc3c4ccc5c6c(ccc(c7ccc(c2c37)C(=O)N1C1CCCCCCCCCCCCCCC1)c64)C(=O)N(C1CCCCCCCCCCCCCCC1)C5=O [N,N'-Dicyclohexadecylperylen-3,4:9,10-bis(dicarboximid)] the “Löslichkeit (CHCl₃)” value was 0.56 g/100ml.

same assay, conditions: n-Heptan, 20 °C; 10080 min

In order of falling “Löslichkeit (n-Heptan/20^oC)” value:
1. CCCCCCCC(CCCCCCC)N1C(=O)c2ccc3c4ccc5c6c(ccc(c7ccc(c2c37)C1=O)c64)C(=O)N(C(CCCCCCC)CCCCCCC)C5=O [N,N'-Di(1-heptyloctyl)perylen-3,4:9,10-bis(dicarboximid)]  0.59 g/100ml
2. CCCCCCCCC(CCCCCCCC)N1C(=O)c2ccc3c4ccc5c6c(ccc(c7ccc(c2c37)C1=O)c64)C(=O)N(C(CCCCCCCC)CCCCCCCC)C5=O [N,N'-Di(1-octylnonyl)perylen-3,4:9,10-bis(dicarboximid)]  0.30 g/100ml

same assay, conditions: n-Heptan, temperature not given; 10080 min

In order of rising “Löslichkeit (n-Heptan)” value:
1. CCCCCCCCCCCCCCCCC(CCCCCCCCCCCCCCCC)N1C(=O)c2ccc3c4ccc5c6c(ccc(c7ccc(c2c37)C1=O)c64)C(=O)N(C(CCCCCCCCCCCCCCCC)CCCCCCCCCCCCCCCC)C5=O [N,N'-Di(1-hexadecylheptadecyl)perylen-3,4:9,10-bis(dicarboximid)]  0.13 g/100 ml
2. CCCCCCCCCCC(CCCCCCCCCC)N1C(=O)c2ccc3c4ccc5c6c(ccc(c7ccc(c2c37)C1=O)c64)C(=O)N(C(CCCCCCCCCC)CCCCCCCCCC)C5=O [N,N'-Di(1-decylundecyl)Perylen-3,4:9,10-bis(dicarboximid)]  4.8 g/100 ml
3. CCCCCCCCCC(CCCCCCCCC)N1C(=O)c2ccc3c4ccc5c6c(ccc(c7ccc(c2c37)C1=O)c64)C(=O)N(C(CCCCCCCCC)CCCCCCCCC)C5=O [N,N'-Di(1-nonyldecyl)perylen-3,4:9,10-bis(dicarboximid)]  35 g/100 ml

In order of rising “Löslichkeit (n-Heptan)” value:
1. CCCCCCCCCCCCCCCCCCC(CCCCCCCCCCCCCCCCCC)N1C(=O)c2ccc3c4ccc5c6c(ccc(c7ccc(c2c37)C1=O)c64)C(=O)N(C(CCCCCCCCCCCCCCCCCC)CCCCCCCCCCCCCCCCCC)C5=O [N,N'-Di(1-octadecylnonadecyl)perylen-3,4:9,10-bis(dicarboximid)]  26 mg/100 ml
2. CCCCCCCCCCCCC(CCCCCCCCCCCC)N1C(=O)c2ccc3c4ccc5c6c(ccc(c7ccc(c2c37)C1=O)c64)C(=O)N(C(CCCCCCCCCCCC)CCCCCCCCCCCC)C5=O [N,N'-Di(1-dodecyltridecyl)perylen-3,4:9,10-bis(dicarboximid)]  67 mg/100 ml
